Positions count from the first letter of the chain named.
Experiments:
Experiment in all cases: Whole-cell binding assay, competition with 125I-GIP1-42
Parameters in all cases: acylated tirzepatide to the full-length or modified; Flag; expressed in transfected cells
GIPR [1] = target: T1, GIPR (Homo sapiens, UniProt P48546, R192A); conditions: GIPR R192A, CHO-K1
T1 sequence (P48546 22-466 R192A): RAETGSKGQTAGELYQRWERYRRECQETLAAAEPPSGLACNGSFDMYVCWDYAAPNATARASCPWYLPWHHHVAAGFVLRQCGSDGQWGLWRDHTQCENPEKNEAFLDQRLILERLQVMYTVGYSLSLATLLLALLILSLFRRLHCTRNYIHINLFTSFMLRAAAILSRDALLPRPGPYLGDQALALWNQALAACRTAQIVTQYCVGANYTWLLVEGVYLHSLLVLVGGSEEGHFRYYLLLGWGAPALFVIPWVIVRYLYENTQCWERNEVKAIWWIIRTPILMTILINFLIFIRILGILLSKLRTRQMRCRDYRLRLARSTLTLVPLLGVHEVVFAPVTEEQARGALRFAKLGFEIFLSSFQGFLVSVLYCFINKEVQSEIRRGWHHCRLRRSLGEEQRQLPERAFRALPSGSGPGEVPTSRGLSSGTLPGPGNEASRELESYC
Summary of the method: (§1)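 Transiently transfected CHO-K1 cells expressing WT or mutant GIPR were washed in F-12 with 0.1% BSA or 0.1% casein and 33 mM HEPES, then incubated 2 h at 37 °C. After ice-cold PBS washes, cells were lysed and bound radioactivity counted (CPM).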

GIPR [2] = target: T2, GIPR (Homo sapiens, UniProt P48546, Q285A); conditions: GIPR Q285A, CHO-K1
T2 sequence (P48546 22-466 Q285A): T1 sequence (P48546 22-466 R192A) with A171R, Q264A
Summary of the method: as §1

GIPR [3] = target: T3, GIPR (Homo sapiens, UniProt P48546, F127A); conditions: GIPR F127A, CHO-K1
T3 sequence (P48546 22-466 F127A): T1 sequence (P48546 22-466 R192A) with F106A, A171R
Summary of the method: as §1

GIPR [4] = target: T4, GIPR (Homo sapiens, UniProt P48546, Q30A); conditions: GIPR Q30A, CHO-K1
T4 sequence (P48546 22-466 Q30A): T1 sequence (P48546 22-466 R192A) with Q9A, A171R
Summary of the method: as §1

[5] = read-out: binding pIC50 (converted)

`CCCCCCCCCCCCCCCC(=O)N[C@@H](CCC(=O)NCCCC[C@H](NC(=O)[C@H](CC(=O)O)NC(=O)[C@H](CO)NC(=O)[C@@H](NC(=O)[C@H](Cc1ccccc1)NC(=O)[C@@H](NC(=O)CNC(=O)[C@H](CCC(N)=O)NC(=O)C(C)(C)NC(=O)[C@@H](N)Cc1c[nH]cn1)[C@@H](C)O)[C@@H](C)O)C(=O)N[C@@H](CO)C(=O)N[C@@H](CCCCN)C(=O)N[C@@H](Cc1ccc(O)cc1)C(=O)N[C@@H](CC(C)C)C(=O)N[C@@H](CC(=O)O)C(=O)N[C@@H](CCC(=O)O)C(=O)N[C@@H](CCCNC(=N)N)C(=O)N[C@@H](C)C(=O)N[C@@H](C)C(=O)N[C@@H](CCC(N)=O)C(=O)N[C@@H](CC(=O)O)C(=O)N[C@@H](Cc1ccccc1)C(=O)N[C@H](C(=O)N[C@@H](CCC(N)=O)C(=O)N[C@@H](Cc1c[nH]c2ccccc12)C(=O)N[C@@H](CC(C)C)C(=O)N[C@@H](CC(C)C)C(=O)N[C@@H](CC(=O)O)C(=O)NCC(=O)NCC(=O)N1CCC[C@H]1C(=O)N[C@@H](CO)C(=O)N[C@@H](CO)C(=O)NCC(=O)N[C@@H](C)C(=O)N1CCC[C@H]1C(=O)N1CCC[C@H]1C(=O)N1CCC[C@H]1C(=O)N[C@@H](CO)C(N)=O)C(C)C)C(=O)O` [Peptide 20] was tested, and the “binding Span” value (GIPR [1]) was 71.60 ± 4.11 % WT, the IC50 (GIPR [1]; [5]) was 24 nM and the “binding Span” value (GIPR [2]) was 108.98 ± 3.60 % WT. For the same molecule, the IC50 (GIPR [2]; [5]) was 13.5 nM, the “binding Span” value (GIPR [3]) was 85.53 ± 4.36 % WT and the IC50 (GIPR [3]; [5]) was 20 nM. For the same molecule, the “binding Span” value (GIPR [4]) was 92.75 ± 4.50 % WT and the IC50 (GIPR [4]; [5]) was 17 nM.

From publication PMC8881610 (Nature Communications, 2022)
